Data on twelve molecules can be found in patent US20250340574A1, “MODULATORS OF CYSTIC FIBROSIS TRANSMEMBRANE CONDUCTANCE REGULATOR” (Vertex Pharmaceuticals Incorporated, priority 2022, published 2025).

The target in data set [1] is T1, CFTR (F508del/MF-HBE cells) (Homo sapiens, UniProt P13569, DEL508-508).
T1 construct: human bronchial epithelial (HBE) cells derived from CF subjects heterozygous for F508del and a minimal function CFTR mutation (F508del/MF-HBE); endogenous in cells; host or cells: Primary human bronchial epithelial cells from CF subjects (F508del/MF genotype), differentiated at an air-liquid interface
T1 sequence (P13569 with tags, fused parts or gaps DEL508-508): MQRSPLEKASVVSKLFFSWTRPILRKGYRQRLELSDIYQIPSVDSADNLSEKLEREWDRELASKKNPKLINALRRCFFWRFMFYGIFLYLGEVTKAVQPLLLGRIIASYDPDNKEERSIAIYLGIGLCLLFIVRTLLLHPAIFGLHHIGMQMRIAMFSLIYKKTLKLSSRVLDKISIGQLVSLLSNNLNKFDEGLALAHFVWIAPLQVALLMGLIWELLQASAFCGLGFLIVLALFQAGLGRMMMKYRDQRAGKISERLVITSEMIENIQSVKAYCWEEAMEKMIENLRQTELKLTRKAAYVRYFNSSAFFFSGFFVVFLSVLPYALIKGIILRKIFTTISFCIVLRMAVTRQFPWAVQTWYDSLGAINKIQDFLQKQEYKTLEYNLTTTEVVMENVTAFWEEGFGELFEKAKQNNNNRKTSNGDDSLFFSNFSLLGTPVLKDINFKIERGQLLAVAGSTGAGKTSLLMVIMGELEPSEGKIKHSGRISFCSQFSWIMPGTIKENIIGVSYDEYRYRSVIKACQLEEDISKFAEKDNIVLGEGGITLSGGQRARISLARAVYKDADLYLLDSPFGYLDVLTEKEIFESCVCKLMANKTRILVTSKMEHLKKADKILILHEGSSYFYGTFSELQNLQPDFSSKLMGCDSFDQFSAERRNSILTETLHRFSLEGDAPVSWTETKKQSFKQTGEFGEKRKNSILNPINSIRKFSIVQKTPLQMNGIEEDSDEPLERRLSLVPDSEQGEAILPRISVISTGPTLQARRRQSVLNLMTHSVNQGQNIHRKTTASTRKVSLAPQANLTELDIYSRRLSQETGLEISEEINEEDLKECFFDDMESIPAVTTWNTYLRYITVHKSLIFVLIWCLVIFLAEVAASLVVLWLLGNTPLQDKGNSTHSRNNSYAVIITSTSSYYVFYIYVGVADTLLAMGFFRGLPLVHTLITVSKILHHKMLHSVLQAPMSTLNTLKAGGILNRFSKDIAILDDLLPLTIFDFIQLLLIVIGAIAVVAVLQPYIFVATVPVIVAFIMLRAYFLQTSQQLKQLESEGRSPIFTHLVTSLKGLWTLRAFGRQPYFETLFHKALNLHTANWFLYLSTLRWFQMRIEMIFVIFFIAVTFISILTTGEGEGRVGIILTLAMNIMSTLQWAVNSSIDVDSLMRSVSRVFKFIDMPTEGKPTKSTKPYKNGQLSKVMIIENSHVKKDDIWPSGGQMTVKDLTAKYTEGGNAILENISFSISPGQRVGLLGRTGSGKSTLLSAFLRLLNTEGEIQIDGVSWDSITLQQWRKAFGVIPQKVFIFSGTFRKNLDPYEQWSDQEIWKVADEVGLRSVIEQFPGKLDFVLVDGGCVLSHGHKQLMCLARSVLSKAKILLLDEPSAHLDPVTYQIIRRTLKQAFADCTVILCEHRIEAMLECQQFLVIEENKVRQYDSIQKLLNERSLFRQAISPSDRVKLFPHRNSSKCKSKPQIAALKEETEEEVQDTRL
In words: Ussing chamber assay of CFTR-mediated short-circuit currents, Assay B (0.00001 μM to 25 μM, 12 concentrations). In kind it is cell-based. The conditions noted are these: with 33 nM potentiator and 18 μM Tezacaftor, 20% human serum; for Emax: 18-24 hours, read-out: B Max activity (%). Summed up: (§1)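 F508del/MF-HBE cells grown at air-liquid interface were incubated 18-24 h at 37 °C in 20% human serum with correctors plus 18 μM tezacaftor and a fixed partner compound (33 nM for concentration series, 44 nM at 1 μM). ISC was read at 0 mV after 20 μM forskolin, minus the post-inhibitor current.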

The target in data set [2] is T1, CFTR (F508del/MF-HBE cells). The experiment in a line: Ussing chamber assay of CFTR-mediated short-circuit currents, Assay A (0.1 μM to 25 μM, 6 concentrations). It is filed as cell-based. Particulars: with 33 nM potentiator and 18 μM Tezacaftor, 20% human serum; for Emax: 18-24 hours, read-out: A Max activity (%). Summed up:
as §1

Data set [3] has the same target. The experiment in a line: Ussing chamber assay of CFTR-mediated short-circuit currents, Assay D (single concentration of 1 μM). Particulars: with 44 nM potentiator and 18 μM Tezacaftor, 18-24 hours, 20% human serum. It is filed as cell-based. Summed up:
as §1

For data set [4] the following is noted: amide bond, 13-membered ring, CDMT/NMM, DMF.
For data set [5], the target named is T1, CFTR (F508del/MF-HBE cells). In words: Ussing chamber assay of CFTR-mediated short-circuit currents, Assay C (0.026 μM to 25 μM, 6 concentrations). It is filed as cell-based. The conditions noted are these: with 33 nM potentiator and 18 μM Tezacaftor, 20% human serum. Summed up:
as §1

Like-named read-outs stand apart in the source and are kept apart here.

As for `CC1(C)CCC=CC[C@](OCc2ccccc2)(C(F)(F)F)C2=NN=C(O2)c2nc(c(C(F)(F)F)cc2[N+](=O)[O-])N1` (mixture of isomers), the ring closure, isolated yield (from C=CCCC(C)(C)Nc1nc(-c2nnc([C@@](CC=C)(OCc3ccccc3)C(F)(F)F)o2)c([N+](=O)[O-])cc1C(F)(F)F, rcm bond, 14-membered ring, Zhan catalyst-1B (20 mol%), DCE, 9.26 mM, 72.0 °C, 2.47 h) is 40%.
Regarding `Cc1cccc(C)c1-c1cc2nc(n1)NS(=O)(=O)c1cccc(c1)C(=O)N(Cc1cnc3oc(C(C)(C)C)cc3n1)[C@H](CC13CC(C1)C3)CO2` [Compound I-99, (11R)-11-(1-bicyclo[1.1.1]pentanylmethyl)-12-[(6-tert-butylfuro[2,3-b]pyrazin-2-yl)methyl]-6-(2,6-dimethylphenyl)-2,2-dioxo-9-oxa-2λ^6-thia-3,5,12,19-tetrazatricyclo[12.3.1.14,8]nonadeca-1(18),4(19),5,7,14,16-hexaen-13-one], the Emax in data set [1] and in data set [2] was more than 60% in each case. In addition, the EC50 in data set [1] and in data set [2] was less than 1000 nM in each case. In data set [3], the “D activity at 1 μM (%)” value was “+++ (+++ is >60%)”. The molecule also came in with a ring closure, yield after HPLC in data set [4] (from Cc1cccc(C)c1-c1cc(OC[C@@H](CC23CC(C2)C3)NCc2cnc3oc(C(C)(C)C)cc3n2)nc(NS(=O)(=O)c2cccc(C(=O)O)c2)n1, 29.9 mM, 16.0 h) of 54%.
For `Cc1cccc(C)c1-c1cc2nc(n1)NS(=N)(=O)c1cccc(c1)C(=O)N(Cc1cnc3oc(C4CC4)cc3n1)[C@H](CC(C)(C)C)CO2` (some centres unmarked), for the setting “from 3-[[[4-[(2R)-2-[(6-Cyclopropylfuro[2,3-b]pyrazin-2-yl)methylamino]-4,4-dimethyl-pentoxy]-6-(2,6-dimethylphenyl)pyrimidin-2-yl]amino]sulfonimidoyl]benzoic acid (hydrochloride salt) (isomer B), amide bond, 13-membered ring, CDMT/NMM, DMF, 10.4 mM”, the ring closure, isolated yield was found to be 8%.
Molecule `Cc1cccc(C)c1-c1cc2nc(n1)NS(=O)(=O)c1cccc(c1)C(=O)N(Cc1cnc3oc(C4CC4)cc3n1)C(C1(C(C)C)CC1)CO2` (centres unmarked) showed a ring closure, isolated yield (from Cc1cccc(C)c1-c1cc(OCC(NCc2cnc3oc(C4CC4)cc3n2)C2(C(C)C)CC2)nc(NS(=O)(=O)c2cccc(C(=O)O)c2)n1, amide bond, 13-membered ring, CDMT/NMM, DMF, 25.0 °C) of 41%.
The molecule `Cc1cccc(C)c1-c1cc2nc(n1)NS(=O)(=O)c1cccc(c1)C(=O)N(Cc1cnc3oc(C4CC4)cc3n1)C(CC1CC(C)(C)C1)CO2` (centres unmarked) had a ring closure, isolated yield (from Cc1cccc(C)c1-c1cc(OCC(CC2CC(C)(C)C2)NCc2cnc3oc(C4CC4)cc3n2)nc(NS(=O)(=O)c2cccc(C(=O)O)c2)n1, amide bond, 13-membered ring, CDMT/NMM, DMF, 15.9 mM, 25.0 h) of 75%.
Take `Cc1cccc(C)c1-c1cc2nc(n1)NS(=O)(=O)c1cccc(c1)C(=O)N(Cc1cnc3oc(C4CC4)cc3n1)[C@H](COC(C)C)CO2` [Compound I-23, (11R)-12-[(6-cyclopropylfuro[2,3-b]pyrazin-2-yl)methyl]-6-(2,6-dimethylphenyl)-11-(isopropoxymethyl)-2,2-dioxo-9-oxa-2λ^6-thia-3,5,12,19-tetrazatricyclo[12.3.1.14,8]nonadeca-1(18),4(19),5,7,14,16-hexaen-13-one]: in data set [1], the Emax was more than 60% and the EC50 lay in the range of 1000 to 3000 nM. In data set [2], the Emax was more than 60% and the EC50 is less than 1000 nM. This molecule also had a ring closure, yield after HPLC in data set [4] (from Cc1cccc(C)c1-c1cc(OC[C@@H](COC(C)C)NCc2cnc3oc(C4CC4)cc3n2)nc(NS(=O)(=O)c2cccc(C(=O)O)c2)n1, 40.6 mM, 14.0 h) of 52%.
With `Cc1cccc(C)c1-c1cc2nc(n1)NS(=O)(=O)c1cccc(c1)C(=O)N(Cc1cnc3nc(C(C)C)n(C)c3n1)[C@H](CC13CC(C1)C3)CO2` [Compound I-88, (11R)-11-(1-bicyclo[1.1.1]pentanylmethyl)-6-(2,6-dimethylphenyl)-12-[(2-isopropyl-3-methyl-imidazo[4,5-b]pyrazin-5-yl)methyl]-2,2-dioxo-9-oxa-2λ^6-thia-3,5,12,19-tetrazatricyclo[12.3.1.14,8]nonadeca-1(18),4(19),5,7,14,16-hexaen-13-one], in data set [1], the Emax was more than 60% and the EC50 was less than 1000 nM. In data set [2], the Emax was more than 60% and the EC50 is less than 1000 nM. The ring closure, yield after HPLC in data set [4] (from Cc1cccc(C)c1-c1cc(OC[C@@H](CC23CC(C2)C3)NCc2cnc3nc(C(C)C)n(C)c3n2)nc(NS(=O)(=O)c2cccc(C(=O)O)c2)n1, 11.0 mM, 16.5 h) amounted to 66%.
Turning to `Cc1cccc(C)c1-c1cc2nc(n1)NS(=O)(=O)c1cccc(c1)C(=O)N(Cc1cnc3oc(C4CC4)cc3n1)[C@H](CC13CC(C1)C3)CO2` [Compound I-52, (11R)-11-(1-bicyclo[1.1.1]pentanylmethyl)-12-[(6-cyclopropylfuro[2,3-b]pyrazin-2-yl)methyl]-6-(2,6-dimethylphenyl)-2,2-dioxo-9-oxa-2λ^6-thia-3,5,12,19-tetrazatricyclo[12.3.1.14,8]nonadeca-1(18),4(19),5,7,14,16-hexaen-13-one], the Emax in data set [1] and in data set [2] was more than 60% throughout. The EC50 in data set [1] was 1000 to 3000 nM; in data set [2], less than 1000 nM. Also, the ring closure, yield after HPLC in data set [4] (from Cc1cccc(C)c1-c1cc(OC[C@@H](CC23CC(C2)C3)NCc2cnc3oc(C4CC4)cc3n2)nc(NS(=O)(=O)c2cccc(C(=O)O)c2)n1, 12.4 mM, 18.0 h) amounted to 66%.
In the case of `Cc1cccc(C)c1-c1cc2nc(n1)NS(=O)(=O)c1cccc(c1)C(=O)N(Cc1cnc3oc(C4CCC4)cc3n1)[C@H](CC13CC(C1)C3)CO2` [Compound I-134, (11R)-11-(1-Bicyclo[1.1.1]pentanylmethyl)-12-[(6-cyclobutylfuro[2,3-b]pyrazin-2-yl)methyl]-6-(2,6-dimethylphenyl)-2,2-dioxo-9-oxa-2λ^6-thia-3,5,12,19-tetrazatricyclo[12.3.1.14,8]nonadeca-1(18),4(19),5,7,14,16-hexaen-13-one], in data set [1], the Emax was more than 60% and the EC50 is less than 1000 nM. This molecule also registered a ring closure, yield after HPLC in data set [4] (from Cc1cccc(C)c1-c1cc(OC[C@@H](CC23CC(C2)C3)NCc2cnc3oc(C4CCC4)cc3n2)nc(NS(=O)(=O)c2cccc(C(=O)O)c2)n1, 28.4 mM, 2.0 h) of 91%.
Consider `Cc1cccc(C)c1-c1cc2nc(n1)NS(=O)(=O)c1cccc(c1)C(=O)N(Cc1cnc3oc(C(C)(C)C)cc3n1)[C@H](CC1(C)CC1)CO2` [Compound I-98, (11R)-12-[(6-tert-butylfuro[2,3-b]pyrazin-2-yl)methyl]-6-(2,6-dimethylphenyl)-11-[(1-methylcyclopropyl)methyl]-2,2-dioxo-9-oxa-2λ^6-thia-3,5,12,19-tetrazatricyclo[12.3.1.14,8]nonadeca-1(18),4(19),5,7,14,16-hexaen-13-one], for which, in data set [1], the Emax was more than 60% and the EC50 fell in the range of 1000 to 3000 nM. Further, in data set [2], the Emax is more than 60% and the EC50 was less than 1000 nM. The molecule further returned a ring closure, yield after HPLC in data set [4] (from Cc1cccc(C)c1-c1cc(OC[C@@H](CC2(C)CC2)NCc2cnc3oc(C(C)(C)C)cc3n2)nc(NS(=O)(=O)c2cccc(C(=O)O)c2)n1, 44.5 mM, 16.0 h) of 55%.
For the molecule `Cc1cccc(C)c1-c1nc2nc(c1C)OC[C@@H](CC(C)(C)C)N(Cc1cnc3cc(C(C)(C)C)n(C)c3n1)C(=O)c1cccc(c1)S(=O)(=O)N2` [Compound I-188, (11R)-12-[(6-tert-Butyl-5-methyl-pyrrolo[2,3-b]pyrazin-3-yl)methyl]-6-(2,6-dimethylphenyl)-11-(2,2-dimethylpropyl)-7-methyl-2,2-dioxo-9-oxa-2λ^6-thia-3,5,12,19-tetrazatricyclo[12.3.1.14,8]nonadeca-1(18),4(19),5,7,14,16-hexaen-13-one], the Emax in data set [1] was more than 60%; in data set [5] (18-24 hours, read-out: C Max activity (%)) it was more than 60%. The EC50 in data set [1] and in data set [5] was less than 1000 nM each time. Besides, the “D activity at 1 μM (%)” value in data set [3] is “+++ (+++ is >60%)”. For the same molecule, the ring closure, yield after HPLC in data set [4] (from Cc1cccc(C)c1-c1nc(NS(=O)(=O)c2cccc(C(=O)O)c2)nc(OC[C@@H](CC(C)(C)C)NCc2cnc3cc(C(C)(C)C)n(C)c3n2)c1C, 19.8 mM, 4.0 h) turned out to be 57%.
Consider `Cc1cccc(C)c1-c1cc2nc(n1)NS(=O)(=O)c1cccc(c1)C(=O)N(Cc1cnc3oc(C4(C)CC4)cc3n1)[C@H](CC1(C)CC1)CO2` [Compound I-96, (11R)-6-(2,6-dimethylphenyl)-12-[[6-(1-methylcyclopropyl)furo[2,3-b]pyrazin-2-yl]methyl]-11-[(1-methylcyclopropyl)methyl]-2,2-dioxo-9-oxa-2λ^6-thia-3,5,12,19-tetrazatricyclo[12.3.1.14,8]nonadeca-1(18),4(19),5,7,14,16-hexaen-13-one], for which, in data set [1], the Emax is more than 60% and the EC50 is 1000 to 3000 nM. In data set [2], the Emax is more than 60% and the EC50 was less than 1000 nM. In data set [4] (from Cc1cccc(C)c1-c1cc(OC[C@@H](CC2(C)CC2)NCc2cnc3oc(C4(C)CC4)cc3n2)nc(NS(=O)(=O)c2cccc(C(=O)O)c2)n1, 50.0 mM, 6.0 h), this molecule yielded a ring closure, yield after HPLC of 63%.
